Source: patent US12384787B2, “Fused heterocyclic compounds and their use as pest control agents” (PI INDUSTRIES LTD., priority 2019, dated 2025)

Legend:
Assay type in all cases: in vivo
Helicoverpa armigera = Helicoverpa armigera diet incorporation method; settings: third instar larvae, 96 h after release, dead and moribund combined, compared to untreated control, read-out: Percent mortality
Experimental: Diet incorporation method was used, in which the required quantity of test compounds were weighed and dissolved in a surfactant solution, kept on vortex for 90 min for proper mixing, then was diluted with water to the desired test concentrations. The solutions were incorporated into semi-synthetic diet when the temperature reached approximately 50° C. in the bioassay containers. The diet and solution was stirred thoroughly for properly mixing and then left to cool for 30 min. The solidified diet was cut into equal pieces, and then each piece was transferred into one cell of the bio-assay trays. A single third starved instar larva was released into each of these cells of the bioassay trays and each tray was covered with a lid. The bio-assay trays were kept under laboratory conditions at a temperature of 25° C. and relative humidity of 70%. Observations on dead, moribund and alive larvae were recorded at 96 h after the release of the larvae. Percent mortality was calculated by combining dead and moribund larvae and comparing the result to the one of the untreated control.

Spodoptera litura = Spodoptera litura diet incorporation method; settings: third instar larvae, 96 h after release, dead and moribund combined, compared to untreated control, read-out: Percent mortality
Experimental: Diet incorporation method was used, in which the required quantity of test compounds were weighed and dissolved in surfactant solution, kept on vortex for 90 min for proper mixing, then diluted with water to the desired test concentrations. The solutions were incorporated into semi-synthetic diet when the temperature reached approximately 50° C. in the bioassay containers. The diet and solution was stirred thoroughly for properly mixing and was left to cool for 30 min. The solidified diet was cut into equal pieces, and then each piece was transferred into one cell of the bio-assay trays. A single starved third instar larva was released into each of these cells of the bioassay trays and the tray was covered with a lid. The bio-assay trays were kept under laboratory conditions at a temperature of 25° C. and relative humidity of 70%. Observations on dead, moribund and alive larvae were recorded at 96 h after the release of the larvae. Percent mortality was calculated by combining dead and moribund larvae and comparing the result to the one of the untreated control.

Plutella xylostella = Plutella xylostella leaf dip method (cabbage leaves); settings: foliar, second instar larvae, 72 h after release, dead and moribund combined, compared to untreated control, read-out: Percent mortality
Experimental: The leaf dip method was used for testing, wherein the required quantity of the compounds were weighed and dissolved in a surfactant solution, kept on a Vortex at 2000 rpm with zirconia beads for 90 min for proper mixing and then diluted with 0.01% Triton-X solution to the desired test concentration. Cabbage leaves were dipped in the solution for 10 seconds, shade dried for 20 min and then transferred to bioassay trays. A single second instar larva was released into each bioassay tray cell and the tray was covered with a lid. The bio-assay trays were kept under laboratory conditions at a temperature of 25° C. and relative humidity of 70%. Observations on dead, moribund and living larvae were recorded at 72 h after the release. Percent mortality was calculated by combining dead and moribund larvae and comparing the result to the one of the untreated control.

SMILES	mortality at 300 ppm (Helicoverpa armigera) [%]	mortality at 300 ppm (Spodoptera litura) [%]	mortality at 300 ppm (Plutella xylostella) [%]
CCS(=O)(=O)c1nn2c(C)cc(C)nc2c1-c1nc2cc(S(=O)(=O)C(F)(F)F)ccc2o1 [Compound 15, 2-(2-(Ethylsulfonyl)-5,7-dimethylpyrazolo[1,5-a]pyrimidin-3-yl)-5-((trifluoromethyl)sulfonyl)benzo[d]oxazole]	> 70	> 70	> 70
CCS(=O)(=O)c1nn2c(-c3ccc(F)cc3)ccnc2c1-c1nc2cc(C(F)(F)F)ncc2n1C [Compound 21, 2-(2-(Ethylsulfonyl)-7-(4-fluorophenyl)pyrazolo[1,5-a]pyrimidin-3-yl)-3-methyl-6-(trifluoromethyl)-3H-imidazo[4,5-c]pyridine]	> 70	> 70	> 70
CCS(=O)(=O)c1nn2c(-c3ccc(F)cc3)ccnc2c1-c1nc2cc(C(F)(F)F)cnc2n1C [Compound 25, 2-(2-(Ethylsulfonyl)-7-(4-fluorophenyl)pyrazolo[1,5-a]pyrimidin-3-yl)-3-methyl-6-(trifluoromethyl)-3H-imidazo[4,5-b]pyridine]	> 70	> 70	> 70
CCS(=O)(=O)c1nn2c(-c3cc(Cl)cc(Cl)c3)ccnc2c1-c1nc2cc(C(F)(F)F)cnc2n1C [Compound 26, 2-(7-(3,5-Dichlorophenyl)-2-(ethylsulfonyl)pyrazolo[1,5-a]pyrimidin-3-yl)-3-methyl-6-(trifluoromethyl)-3H-imidazo[4,5-b]pyridine]	> 70	> 70	> 70
CCS(=O)(=O)c1nn2c(-c3ccc(Cl)cc3)ccnc2c1-c1nc2cc(C(F)(F)F)ncc2n1C [Compound 37, 2-(7-(4-Chlorophenyl)-2-(ethylsulfonyl)pyrazolo[1,5-a]pyrimidin-3-yl)-3-methyl-6-(trifluoromethyl)-3H-imidazo[4,5-c]pyridine]	–	> 70	> 70
CCS(=O)(=O)c1nn2cc(-c3ccc(OC(F)(F)F)cc3)cnc2c1-c1nc2cc(C(F)(F)F)cnc2n1C [Compound 83, 2-(2-(Ethylsulfonyl)-6-(4-(trifluoromethoxy)phenyl)pyrazolo[1,5-a]pyrimidin-3-yl)-3-methyl-6-(trifluoromethyl)-3H-imidazo[4,5-b]pyridine]	> 70	> 70	> 70
CCSc1nn2c(-c3ccc(OC(F)(F)C(F)F)cc3)ccnc2c1-c1nc2cc(C(F)(F)F)cnc2n1C [Compound 87, 2-(2-(Ethylthio)-7-(4-(1,1,2,2-tetrafluoroethoxy)phenyl)pyrazolo[1,5-a]pyrimidin-3-yl)-3-methyl-6-(trifluoromethyl)-3H-imidazo[4,5-b]pyridine]	> 70	> 70	> 70
CCS(=O)(=O)c1nn2c(-c3ccc(OC(F)(F)C(F)F)cc3)ccnc2c1-c1nc2cc(C(F)(F)F)cnc2n1C [Compound 90, 2-(2-(Ethylsulfonyl)-7-(4-(1,1,2,2-tetrafluoroethoxy)phenyl)pyrazolo[1,5-a]pyrimidin-3-yl)-3-methyl-6-(trifluoromethyl)-3H-imidazo[4,5-b]pyridine]	> 70	> 70	> 70
CCS(=O)(=O)c1nn2c(-c3ccc(OC(F)(F)C(F)F)cc3)ccnc2c1-c1nc2cc(C(F)(F)F)ncc2n1C [Compound 91, 2-(2-(Ethylsulfonyl)-7-(4-(1,1,2,2-tetrafluoroethoxy)phenyl)pyrazolo[1,5-a]pyrimidin-3-yl)-3-methyl-6-(trifluoromethyl)-3H-imidazo[4,5-c]pyridine]	> 70	–	> 70
CCSc1nn2c(-c3ccc(OC(F)(F)C(F)F)cc3)ccnc2c1-c1nc2cc(C(F)(F)F)ncc2n1C [Compound 93, 2-(2-(Ethylthio)-7-(4-(1,1,2,2-tetrafluoroethoxy)phenyl)pyrazolo[1,5-a]pyrimidin-3-yl)-3-methyl-6-(trifluoromethyl)-3H-imidazo[4,5-c]pyridine]	> 70	> 70	> 70
CCS(=O)(=O)c1nn2c(-c3cccc(Cl)c3)ccnc2c1-c1nc2cc(C(F)(F)F)cnc2n1C [Compound 99, 2-(7-(3-Chlorophenyl)-2-(ethylsulfonyl)pyrazolo[1,5-a]pyrimidin-3-yl)-3-methyl-6-(trifluoromethyl)-3H-imidazo[4,5-b]pyridine]	> 70	–	> 70
CCS(=O)(=O)c1nn2c(-c3cc(F)cc(F)c3)ccnc2c1-c1nc2cc(C(F)(F)F)cnc2n1C [Compound 101, 2-(7-(3,5-Difluorophenyl)-2-(ethylsulfonyl)pyrazolo[1,5-a]pyrimidin-3-yl)-3-methyl-6-(trifluoromethyl)-3H-imidazo[4,5-b]pyridine]	> 70	> 70	> 70
CCS(=O)(=O)c1nn2c(-c3cc(F)cc(Cl)c3)ccnc2c1-c1nc2cc(C(F)(F)F)cnc2n1C [Compound 103, 2-(7-(3-Chloro-5-fluorophenyl)-2-(ethylsulfonyl)pyrazolo[1,5-a]pyrimidin-3-yl)-3-methyl-6-(trifluoromethyl)-3H-imidazo[4,5-b]pyridine]	> 70	> 70	> 70
CCS(=O)(=O)c1nn2cc(-c3ccc(OC(F)(F)C(F)F)cc3)cnc2c1-c1nc2cc(C(F)(F)F)ncc2n1C [Compound 109, 2-(2-(Ethylsulfonyl)-6-(4-(1,1,2,2-tetrafluoroethoxy)phenyl)pyrazolo[1,5-a]pyrimidin-3-yl)-3-methyl-6-(trifluoromethyl)-3H-imidazo[4,5-c]pyridine]	> 70	–	> 70
CCSc1nn2c(-c3cccc(C(F)(F)F)c3)ccnc2c1-c1nc2cc(C(F)(F)F)cnc2n1C [Compound 126, 2-(2-(Ethylthio)-7-(3-(trifluoromethyl)phenyl)pyrazolo[1,5-a]pyrimidin-3-yl)-3-methyl-6-(trifluoromethyl)-3H-imidazo[4,5-b]pyridine]	> 70	> 70	–
CCS(=O)(=O)c1nn2c(-c3cccc(C(F)(F)F)c3)ccnc2c1-c1nc2cc(C(F)(F)F)cnc2n1C [Compound 129, 2-(2-(ethylsulfonyl)-7-(3-(trifluoromethyl)phenyl)pyrazolo[1,5-a]pyrimidin-3-yl)-3-methyl-6-(trifluoromethyl)-3H-imidazo[4,5-b]pyridine]	–	> 70	> 70
CCSc1nn2c(-c3cccc(C(F)(F)F)c3)ccnc2c1-c1nc2cc(C(F)(F)F)ncc2n1C [Compound 134, 2-(2-(Ethylthio)-7-(3-(trifluoromethyl)phenyl)pyrazolo[1,5-a]pyrimidin-3-yl)-3-methyl-6-(trifluoromethyl)-3H-imidazo[4,5-c]pyridine]	–	> 70	–
CCS(=O)(=O)c1nn2c(-c3cccc(C(F)(F)F)c3)ccnc2c1-c1nc2cc(C(F)(F)F)ncc2n1C [Compound 136, 2-(2-(Ethylsulfonyl)-7-(3-(trifluoromethyl)phenyl)pyrazolo[1,5-a]pyrimidin-3-yl)-3-methyl-6-(trifluoromethyl)-3H-imidazo[4,5-c]pyridine]	> 70	–	> 70
